# Laboratory results published in ChEMBL document CHEMBL1921788, “Development of melanoma-targeted polymer micelles by conjugation of a melanocortin 1 receptor (MC1R) specific ligand” (J Med Chem, 2011).
# Non-standard residues stand in square brackets, D forms with d. Residues, ends and D or L forms follow the SMILES beside them. d2Nal = N[C@H](Cc1ccc2ccccc2c1)C(=O)O; Nle = CCCC[C@H](N)C(=O)O
# System: HEK293
# Assay: Selectivity ratio of Ki for human MC5 receptor expressed in human HEK293 cells to Ki for human MC1 receptor expressed in human HCT116 cells
# Assay type: cell-based
smiles,measurement,value
CCCC[C@H](NC(=O)[C@@H](NC(=O)[C@@H](N)Cc1ccc(O)cc1)C(C)C)C(=O)NCC(=O)N[C@@H](Cc1cnc[nH]1)C(=O)N[C@H](Cc1ccc2ccccc2c1)C(=O)N[C@@H](CCCNC(=N)N)C(=O)N[C@H](Cc1ccccc1)C(=O)N[C@@H](CC(=O)O)C(=O)N[C@@H](CCCNC(=N)N)C(=O)N[C@@H](Cc1ccccc1)C(=O)NCC(N)=O (H-YV[Nle]GH[d2Nal]R[dF]DRFG-NH2),Ratio Ki,0.13
